Results taken from patent publication US4562292A, “Trifluoromethylketone sulfides and reversible enzyme inhibition therewith” (priority 1983, dated 1985).

Biological target: T1, human brain neurotoxic esterase (Homo sapiens, UniProt Q8IY17)
T1 construct: from tissue; host or cells: human brain
T1 sequence (Q8IY17 1-1375): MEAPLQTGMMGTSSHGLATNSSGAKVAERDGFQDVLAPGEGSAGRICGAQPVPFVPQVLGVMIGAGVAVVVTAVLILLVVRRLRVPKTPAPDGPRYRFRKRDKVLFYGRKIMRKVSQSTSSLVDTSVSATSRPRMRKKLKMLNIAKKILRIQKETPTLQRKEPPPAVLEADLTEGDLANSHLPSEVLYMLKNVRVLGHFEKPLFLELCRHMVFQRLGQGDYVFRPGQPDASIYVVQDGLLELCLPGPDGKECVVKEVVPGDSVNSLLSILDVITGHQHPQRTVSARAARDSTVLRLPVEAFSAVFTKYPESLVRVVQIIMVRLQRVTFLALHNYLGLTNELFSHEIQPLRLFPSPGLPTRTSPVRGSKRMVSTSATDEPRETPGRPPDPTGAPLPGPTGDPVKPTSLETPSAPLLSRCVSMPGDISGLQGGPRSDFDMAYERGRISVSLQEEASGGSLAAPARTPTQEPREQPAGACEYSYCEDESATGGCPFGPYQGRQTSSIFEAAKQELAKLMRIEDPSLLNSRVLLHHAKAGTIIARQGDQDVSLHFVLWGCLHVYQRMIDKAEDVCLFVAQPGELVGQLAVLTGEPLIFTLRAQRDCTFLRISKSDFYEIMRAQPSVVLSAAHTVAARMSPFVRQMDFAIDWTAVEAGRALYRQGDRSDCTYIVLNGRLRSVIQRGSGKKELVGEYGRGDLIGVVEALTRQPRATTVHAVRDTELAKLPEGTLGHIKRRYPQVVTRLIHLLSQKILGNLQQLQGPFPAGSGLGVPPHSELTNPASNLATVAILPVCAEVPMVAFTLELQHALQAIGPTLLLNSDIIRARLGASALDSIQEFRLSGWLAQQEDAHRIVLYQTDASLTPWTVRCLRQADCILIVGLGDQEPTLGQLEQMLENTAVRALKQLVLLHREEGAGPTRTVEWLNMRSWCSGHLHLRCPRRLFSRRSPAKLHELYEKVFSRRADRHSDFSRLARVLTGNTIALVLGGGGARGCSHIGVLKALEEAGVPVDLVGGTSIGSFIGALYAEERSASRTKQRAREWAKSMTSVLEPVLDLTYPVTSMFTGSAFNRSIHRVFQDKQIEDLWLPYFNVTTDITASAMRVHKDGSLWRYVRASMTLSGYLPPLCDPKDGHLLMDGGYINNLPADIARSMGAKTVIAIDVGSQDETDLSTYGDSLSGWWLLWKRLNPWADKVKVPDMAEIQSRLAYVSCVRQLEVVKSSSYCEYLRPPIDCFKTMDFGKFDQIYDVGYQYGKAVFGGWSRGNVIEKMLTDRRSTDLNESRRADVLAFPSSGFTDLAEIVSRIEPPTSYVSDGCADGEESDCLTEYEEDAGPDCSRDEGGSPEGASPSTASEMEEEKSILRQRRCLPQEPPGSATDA
Experiment: blocking of mepafox inhibition of neurotoxic esterase
Format: biochemical
Conditions: relative to the other compounds
Excerpt: The data in Table III were generated by determining what concentration of the various novel compounds were needed to block the inhibition of human brain neurotoxic esterase by a high concentration of mepafox.

O=C(CSc1ccc(Oc2ccc(SCC(=O)C(F)(F)F)cc2)cc1)C(F)(F)F [Compound 35]
potency in blocking neurotoxic esterase: most potent to date
